Reference: patent US12472193B2, “Methods and compositions for treating and preventing respiratory related diseases and conditions with xylitol-headgroup lipid analogs” (National Jewish Health, priority 2017, dated 2025)

Tests used:
TLR 5 = target: T1, TLR 5 (Homo sapiens, UniProt O60602); assay: Flagellin-induced IL-8 in BEAS2B cells (TLR 5 antagonism); format: cell-based; settings: lipid alone
T1 construct: endogenous in cells; host or cells: BEAS2B (ATCC)
Description: Human bronchial epithelial cells, BEAS2B, were obtained from ATCC and maintained in bronchial epithelial cell growth medium (BEGM), supplemented with the BulleKit from Lonza in accordance with protocol (M. H. Hudy, S. et al., “Cigarette smoke modulates rhinovirus-induced airway epithelial cell chemokine production.,” Eur. Respir. J., vol. 35, no. 6, pp. 1256-63, June 2010). Cells were cultured at 37 C with 5% carbon dioxide:95% air atmosphere maintained within the incubator. Experiments were conducted in 48-well plates and cells were seated at a density of 5×10^4 per well. After 24 hours, the BEGM medium was replaced with RPMI-1640 medium and incubated for an additional 24 hours. Liposomes were prepared as described above. […] Subsequently, media were collected, diluted and an enzyme-linked immunosorbent assay (ELISA) was performed to quantify IL-8 release by cells.
TLR 5 is an extracellular member of the TLR family. […] To address whether xylitol analogs antagonize TLR activation due to disruption or destruction of all membrane signaling, PX lipids were assessed at the highest concentration used in experiments reported in this example in human bronchial epithelial cells, BEAS2B, for antagonism of flagellin activation of TLR 5. The cytokine, IL-8, was quantified as an output of TLR 5 activation.

[1] = Inflammatory burden caused by intranasal inoculation of 18:1 DEPX; format: in vivo, mouse
Description: Doses of 18:1 DEPX ranging from 35 μg to 1 mg were administered to mice by intranasal inoculation. The inflammatory burden caused by delivery of the synthetic lipid to the mouse lung was assessed 24 hours following inoculation. At 24 hours, mice were sacrificed and BALF was collected. The cells in BALF were quantified and cell populations within the lavage fluid were assessed by staining and cytospin analysis.
In order to determine the dose of 18:1 DEPX that is used in RSV challenge experiments, the toxic effects of the lipid were studied by the inflammatory response it elicits following delivery. A range of doses of 18:1 DEPX, from 35 μg to 1 mg, was instilled intranasally to 6-8 week old female BALB/C mice. Mice were sacrificed 24 hours following lipid delivery to best assess immediate inflammatory response. Mouse lungs were lavaged with 1 mL PBS and BALF was assessed for total inflammatory cellular infiltrates quantitatively and further characterized for cell populations by cytospin.
Following quantification of cells in 1 mL BALF, cells were subjected to cytospin and fixed and stained on microscope slides. 500 cells were counted from each slide and the numbers of macrophages, neutrophils and lymphocytes recorded. Delivery of 18:1 DEPX to mice elicits an inflammatory response determined by the influx of neutrophils found in lavage. […] Therefore, a dose of 100 μg 18:1 DEPX was chosen to perform RSV challenge experiments.

T1 sequence (O60602 21-858): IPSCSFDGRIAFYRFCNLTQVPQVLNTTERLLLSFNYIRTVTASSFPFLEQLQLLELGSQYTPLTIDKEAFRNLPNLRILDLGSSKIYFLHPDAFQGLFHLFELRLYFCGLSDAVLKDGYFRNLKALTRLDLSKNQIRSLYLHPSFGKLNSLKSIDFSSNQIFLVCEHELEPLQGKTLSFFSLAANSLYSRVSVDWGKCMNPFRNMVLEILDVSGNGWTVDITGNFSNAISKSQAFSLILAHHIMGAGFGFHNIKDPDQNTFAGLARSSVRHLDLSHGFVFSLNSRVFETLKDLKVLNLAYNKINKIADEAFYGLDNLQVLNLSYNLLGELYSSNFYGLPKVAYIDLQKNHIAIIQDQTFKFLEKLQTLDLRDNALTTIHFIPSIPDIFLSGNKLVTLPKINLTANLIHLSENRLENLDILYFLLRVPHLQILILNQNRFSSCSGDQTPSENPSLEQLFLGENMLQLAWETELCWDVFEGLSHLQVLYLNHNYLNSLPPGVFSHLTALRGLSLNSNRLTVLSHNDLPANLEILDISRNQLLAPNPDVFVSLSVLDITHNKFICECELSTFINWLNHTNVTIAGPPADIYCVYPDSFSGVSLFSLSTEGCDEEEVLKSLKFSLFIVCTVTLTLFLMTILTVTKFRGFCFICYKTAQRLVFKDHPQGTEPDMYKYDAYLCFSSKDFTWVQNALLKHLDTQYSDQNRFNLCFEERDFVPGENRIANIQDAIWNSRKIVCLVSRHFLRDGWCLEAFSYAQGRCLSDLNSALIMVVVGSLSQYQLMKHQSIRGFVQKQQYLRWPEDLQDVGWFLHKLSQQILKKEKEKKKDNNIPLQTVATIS

CCCCCCC=CCCCCCCCC(=O)OCC(COP(=O)(O)OCC(O)C(O)C(O)CO)OC(=O)CCCCCCCC=CCCCCCC (mixture of isomers) [16:1 DPPX, sn-1-palmitoleoyl, sn-2-palmitoleoyl sn-3 glycerol phosphoxylitol]
IL-8 secretion in the absence of Flagellin stimulus (TLR 5): stimulate IL-8 secretion over that of the control

CCCCCCCCC=CCCCCCCCCOCC(COP(=O)(O)OCC(O)C(O)C(O)CO)OCCCCCCCCC=CCCCCCCCC (mixture of isomers) [18:1 DEPX, sn-1-O-octadecenyl, sn-2-O-octadecenyl sn-3 glycerol phosphoxylitol]
BALF cell counts compared to PBS control ([1]; 35 μg, 75 μg, 150 μg and 250 μg intranasal, 24 hours): did not have cell counts distinguishable from the control
neutrophils in BALF (cytospin) ([1]; 75 μg intranasal, 24 hours): significant numbers of neutrophils
BALF cell counts compared to PBS control ([1]; 300 μg, 500 μg and 1 mg intranasal, 24 hours): significantly higher cell counts
mortality ([1]; 1 mg intranasal): One mouse in the group that received 1 mg of 18:1 DEPX died
dose giving significant cellular infiltrates compared to control mice ([1]; intranasal, 24 hours): ≥ 300 µg
doses accompanied with significant cellular infiltrates compared with PBS control ([1]; intranasal, 24 hours): ≥ 300 µg

CCCCCC=CCC=CCCCCCCCC(=O)OCC(COP(=O)(O)OCC(O)C(O)C(O)CO)OC(=O)CCCCCCCC=CCC=CCCCCC (mixture of isomers) [18:2 DLPX, sn-1-linoleoyl, sn-2-linoleoyl sn-3 glycerol phosphoxylitol]
IL-8 secretion in the absence of Flagellin stimulus (TLR 5): stimulate IL-8 secretion over that of the control
